Source: patent publication US11135340B2, “Compositions and methods for preparation of composite polymer coatings on medical implants, and their use for co-delivery of multiple antimicrobial agents” (THE JOHNS HOPKINS UNIVERSITY, priority 2016, dated 2021)
Where two headings read alike, the source gives them in different places.

Key:
S. aureus = experiment: In vitro zone of inhibition assay of coated K-wires; assay type: cell-based, Staphylococcus aureus; settings: any of the storage conditions vs freshly prepared coatings
Text: A zone of inhibition assay was used as an additional assay to evaluate the in vitro release of antibiotic(s) from the composite coating. Tryptic soy agar bacterial plates were inoculated with S. aureus bacteria cells to yield a bacterial lawn after overnight culture. After bacterial inoculation and before culturing the plates, two identical titanium K-wires loaded with either 10 w/w % Lin, 10 w/w % Van, or 10 w/w % Dap alone, or in combination with Rif were placed in two separate areas on the plate. After culturing the plates at 37° C. for 24 hours, the antimicrobial activity of the eluded antibiotic(s) into the agar was measured as a zone of inhibition (diameter [mm]) of the bacterial growth around the K-wire.
Long-term efficacy of the antimicrobial activity was tested by storing electrospun pins at room temperature for 6 weeks, −20° C. for 6 weeks, and −80° C. for 8 months. Coated pins were protected from light during storage. These pins were then used in the same zone of inhibition assay as described hereinabove. These antimicrobial results were further confirmed with a two-week in vitro release study to determine release kinetics after storage.
Tryptic soy agar (TSA) bacterial plates were inoculated with S. aureus to yield a bacterial lawn after overnight culture. Before culturing the plates, two titanium K-wires each loaded with the same combination of antibiotics from each set were placed in two separate areas on the plate. After culturing at 37° C. for 24 hours, the zone of inhibition (ZOI) (diameter/mm) of bacterial growth were measured.

[1] = In vitro release of antibiotics from composite coatings on titanium K-wire implants; assay type: physicochemical; settings: for release kinetics after storage: coated pins stored 6 weeks room temperature, 6 weeks −20° C. or 8 months frozen, vs fresh; for Day 1 release of Gentamicin: of total loading
Experimental: The release rate of the polymer composite film was measured by HPLC. Drug release studies were conducted using coated pins created with the same loading parameters as those used for later in vivo testing (10% (w/w) drug combinations) electrospun for 60 seconds at injection rates of 0.5 mL/h from each needle. Release rate of antibiotics from the composite polymer coating was characterized by placing coated pins in 200 μL pH 7.4 PBS buffer and incubating at 37° C. in an aluminum film-covered incubator to prevent possible light-induced drug degradation. Release media was changed at fixed time points over a period of two weeks and stored in a −20° C. freezer until analysis. Drug concentrations in release media for each day were determined via reverse-phase HPLC using a C-18 column in an Alliance HPLC system and Waters 2996 PDA detector. The mobile phase was a mixture of acetonitrile and water both mixed with 0.1% TFA acid, which was run at a gradient from (15%/85%) to (40%/60%) for a total runtime of 15 minutes per sample for the elution of Van/Rif and Lin/Rif drug loading groups. Elution of the Dap/Rif loading group was conducted using a mobile phase of (49%/51%) of acetonitrile and water both mixed with 0.1% TFA acid for a total run time of 11 minutes per sample. Concentrations of the drugs were quantified using wavelengths of 343 nm for Rif, 254 nm for Lin, 280 nm for Van and 223 nm for Dap using prepared standard curves for all three drugs. […] Quantification was performed through the derivatization of Gentamicin with ninhydrin at 95° C. for 15 minutes and detection with a Biotek Synergy2 plate reader.
Drug release studies were conducted using coated pins created with the same loading parameters as detailed above. Release kinetics of antibiotics from the composite coating were characterized by placing coated pins in 200 μL of phosphate buffer saline (PBS, pH 7.4) at 37° C. Release media was changed daily over a period of two weeks and stored at −20° C. until analysis. Drug concentrations in release media were measured on days 1, 2, 3, 5, 7, 10 and 14 using a Waters Alliance 2690 HPLC system (Waters Corporation, Milford, Mass.) equipped with an Accucore RP-MS C18 column (100 mm×2.1 mm; Thermo Fisher Scientific) and a Waters 2996 PDA detector. The elution was carried out with a mobile phase of water and acetonitrile both mixed with 0.1% TFA at a flow rate of 1 mL/min at ambient temperature using a linear gradient elution program of 85% water to […] in 15 minutes. Concentrations of the drugs were quantified using wavelengths for Van (280 nm), Lin (254 nm), Dap (224 nm) and Rif (263 nm).

XEN36 = experiment: MIC of XEN36 for each antibiotic; assay type: cell-based, Staphylococcus aureus; settings: S. aureus XEN36
[2] = In vivo release kinetics of ICG from PCL coating by fluorescence imaging; design: species or system mice; settings: ICG loaded PCL coating on K-wire in mouse femur
Text: FIG. 9A and FIG. 9B show in vivo release kinetics as measured by PCL coatings impregnated with a near-infrared (NIR) fluorescent dye Indocyanine green (ICG) as a surrogate for the antibiotic loaded coatings.
The near-infrared (NIR) fluorescence imaging dye indocyanine green (ICG) was used as a surrogate model for drug loading and release in an established mouse model (described in Example 4) to monitor the in vivo release kinetics from PCL coating (FIG. 9A and FIG. 9B). ICG loaded PCL was coated onto titanium K-wire (described in Example 1). The implants were surgically placed in a retrograde fashion with 1 mm protruding into the joint space of mice. The release of ICG was measured by its fluorescence intensity at different time points.

[3] = test system: S. aureus bioluminescent strain Xen36; experiment: Mouse model of prosthetic joint infection: in vivo bioluminescence imaging and CFU; design: species or system mice; settings: intravenous prophylaxis 110 mg/kg at −1 and 16 hours
[4] = Staphylococcus aureus, read-out: MIC

Question: For `CCCCCCCCCC(=O)N[C@@H](Cc1c[nH]c2ccccc12)C(=O)N[C@H](CC(N)=O)C(=O)N[C@@H](CC(=O)O)C(=O)N[C@@H]1C(=O)NCC(=O)N[C@@H](CCCN)C(=O)N[C@@H](CC(=O)O)C(=O)N[C@H](C)C(=O)N[C@@H](CC(=O)O)C(=O)NCC(=O)N[C@H](CO)C(=O)N[C@@H]([C@H](C)CC(=O)O)C(=O)N[C@@H](CC(=O)c2ccccc2N)C(=O)O[C@@H]1C` [Dap, daptomycin], which “antimicrobial activity (zone of inhibition) after storage” value (S. aureus) is on record?
Answer: no significant loss of antimicrobial activity

Question: And the “release kinetics after storage” value [1]?
Answer: no difference in the release kinetics

Question: What about the MIC (XEN36; [4]) of the same molecule?
Answer: 0.25 µg/mL

Question: Which “duration of ICG release” value [2] does the source give for `CC1(C)C(/C=C/C=C/C=C/C=C2\N(CCCCS(=O)(=O)O)c3ccc4ccccc4c3C2(C)C)=[N+](CCCCS(=O)(=O)[O-])c2ccc3ccccc3c21` [ICG, indocyanine green] here?
Answer: over two weeks

Question: What about the “peak dissolution of ICG” value [2] of the same molecule?
Answer: 1 days

Question: With `CC(=O)NC[C@H]1CN(c2ccc(N3CCOCC3)c(F)c2)C(=O)O1` [Lin, linezolid] as the molecule, how does the “antimicrobial activity (zone of inhibition) after storage” value (S. aureus) read?
Answer: no significant loss of antimicrobial activity

Question: What about the “release kinetics after storage” value [1] of the same molecule?
Answer: no difference in the release kinetics

Question: What about the MIC (XEN36; [4]) of the same molecule?
Answer: 2 µg/mL

Question: What does the source list for `CO[C@H]1/C=C/O[C@@]2(C)Oc3c(C)c(O)c4c(O)c(c(/C=N/N5CCN(C)CC5)c(O)c4c3C2=O)NC(=O)/C(C)=C\C=C\[C@H](C)[C@H](O)[C@@H](C)[C@@H](O)[C@@H](C)[C@H](OC(C)=O)[C@@H]1C` [Rif, Rifampin]?
Answer: antimicrobial activity (zone of inhibition) after storage (S. aureus): no significant loss of antimicrobial activity; release of Rif out of the composite film coating after storage (reduced or not) ([1]; pins stored at −20° C.): not when the pins were stored at −20 °C; release of Rif out of the composite film coating after storage ([1]; storage at room temperature for six weeks): reduced; Rif remains above the MIC ([1]; tuned by PCL molecular weight or PCL layer thickness): 2 to 5 days; MIC (XEN36; [4]): 0.5 µg/mL

Question: For `CN[C@H](CC(C)C)C(=O)N[C@H]1C(=O)N[C@@H](CC(N)=O)C(=O)N[C@H]2C(=O)N[C@H]3C(=O)N[C@H](C(=O)N[C@H](C(=O)O)c4cc(O)cc(O)c4-c4cc3ccc4O)[C@H](O)c3ccc(c(Cl)c3)Oc3cc2cc(c3O[C@@H]2O[C@H](CO)[C@@H](O)[C@H](O)[C@H]2O[C@H]2C[C@](C)(N)[C@H](O)[C@H](C)O2)Oc2ccc(cc2Cl)[C@H]1O` [Van, vancomycin], which “antimicrobial activity (zone of inhibition) after storage” value (S. aureus) is on record?
Answer: no significant loss of antimicrobial activity

Question: What about the “release kinetics after storage” value [1] of the same molecule?
Answer: no difference in the release kinetics

Question: And the BLI signals [3]?
Answer: decreased BLI signals

Question: What about the “clearance of infection (CFU from bone/joint tissue and implants)” value [3] of the same molecule?
Answer: the infection was not cleared

Question: And the MIC (XEN36; [4])?
Answer: 0.5 µg/mL

Question: For Gentamicin, which Gentamicin release profile ([1]; 50:50 PLGA) is on record?
Answer: sustained release

Question: And the Gentamicin release profile ([1]; 75:25 PLGA)?
Answer: only a burst release

Question: What about the “release of Gentamicin above the MIC” value ([1]; controlled by polymer choice (PLA:PGA ratio of PLGA)) of the same molecule?
Answer: 2 to 14 days

Question: And the “Day 1 release of Gentamicin” value ([1]; PLGA nanofibers alone)?
Answer: 80%

Question: And the “Day 1 release of Gentamicin” value ([1]; PLGA nanofibers embedded in PCL film layer)?
Answer: less than 45%

Question: What about the “Gentamicin MIC concentration sustained” value ([1]; release from PLGA nanofibers of composite coating, FIG. 11A) of the same molecule?
Answer: up to 14 days

Question: And the MIC (XEN36)?
Answer: roughly 10 μg/mL
